Results reported in patent US8933234B2, “O-amino benzonitrile compounds, method for preparing same and uses thereof” (Hangzhou Udragon Chemical Co., Ltd., priority 2011, dated 2015).

Experiments:
Diamondback moth = assay: Insecticidal effect on diamondback moth (cabbage leaf disc dip test); assay type: in vivo; details: for Insecticidal Effect (%) Diamondback moth (1 mg/L): leaf disc immersed 10 seconds, larvae, mortality; for mortality at 1 µg/mL: Plutella xylostella, foliar, 72 h, concentration of 1 mg/L, 3 days
Procedure: (§1) The compound to be tested dissolved in acetone and 1‰ Tween-80 solution, and was formulated to 50 ml of the test solution with desired concentration. The cabbage leaves having been cleaned and dried were made into leaf disc with diameter of 1 cm with hole puncher. The leaf disc were immersed in the drug liquid for 10 seconds and then removed, dried naturally, loaded in the culture dish. 10 […] diamondback moth larvae were introduced per dish and repeated for three times. After the treatment, the dishes were placed into a room with temperature of 20° C., relative humidity of 60-70% and without illumination to take an indoor culture. The survival of insects was surveyed and the mortality was calculated.

pink stem borer = assay: Insecticidal effect on pink stem borer (method of Test Example 1); assay type: in vivo; details: for Insecticidal Effect (%) pink stem borer (2 mg/L): leaf disc immersed 10 seconds, mortality
Procedure: [The procedure below names another organism; the source lists this organism under the same test.] as §1

Structure (SMILES) | Insecticidal Effect (%) Diamondback moth (1 mg/L) (Diamondback moth) | Insecticidal Effect (%) pink stem borer (2 mg/L) (pink stem borer) | mortality at 1 µg/mL (Diamondback moth) | mortality to pink stem borer in 3 days (pink stem borer; concentration of 2 mg/L, 3 days)
Cc1cc(Cl)cc(C#N)c1NC(=O)c1cc(Br)nn1-c1ncccc1Cl [Compound I-1] | 50% | 40% | – | –
Cc1cc(Cl)cc(C#N)c1NC(=O)c1cc(Br)nn1-c1ncc(Cl)cc1Cl [Compound I-2] | 80% | 50% | – | –
Cc1cc(Cl)cc(C#N)c1NC(=O)c1cc(Br)nn1-c1ncc(Cl)cc1F [Compound I-3] | 100% | 85% | 100% | –
N#Cc1cc(Cl)cc(Cl)c1NC(=O)c1cc(Br)nn1-c1ncccc1Cl [Compound I-4] | 100% | 98% | 100% | 98%
N#Cc1cc(Cl)cc(Cl)c1NC(=O)c1cc(Br)nn1-c1ncc(Cl)cc1F [Compound I-6] | 100% | 90% | 100% | –
Cc1cc(Cl)cc(C#N)c1NC(=O)c1cc(Br)nn1-c1ncc(C(F)(F)F)cc1Cl [Compound I-7] | 90% | 80% | – | –
N#Cc1cc(Cl)cc(Cl)c1NC(=O)c1cc(Br)nn1-c1ncc(Cl)cc1Cl [Compound I-5] | 100% | 70% | 100% | –
